Test results published in ChEMBL document CHEMBL5620349, “Recent advance of small-molecule drugs for clinical treatment of multiple myeloma” (Eur J Med Chem, 2023).
Structures can show the parent of a compound that is named as a salt. Each block holds one compound with its values, some of them ahead of it.

Columns and labels:
[1] = Inhibition of 20s proteasome beta1 (unknown origin) mediated […] activity; set-up: species or system Homo sapiens
[2] = Inhibition of 20s proteasome beta2 (unknown origin) mediated […] activity; set-up: species or system Homo sapiens
[3] = biological target: Protein smoothened (Mus musculus, UniProt P56726); assay: Antagonist activity at mouse SMO
[4] = biological target: Protein smoothened (Homo sapiens, UniProt Q99835); assay: Antagonist activity at human SMO
[5] = biological target: Beta-2 adrenergic receptor (Homo sapiens, UniProt P07550); assay: Agonist activity at Adrenergic beta2 receptor (unknown origin); type: functional
[6] = biological target: Nuclear factor NF-kappa-B complex (Homo sapiens, UniProt P19838+Q00653+Q04206); assay: Inhibition of NF-kappaB (unknown origin); type: protein-complex assay
[7] = test system: Human immunodeficiency virus 2; assay: Antiviral activity against HIV-2

Protein smoothened (Mus musculus, UniProt P56726), sequence (P56726 whole entry): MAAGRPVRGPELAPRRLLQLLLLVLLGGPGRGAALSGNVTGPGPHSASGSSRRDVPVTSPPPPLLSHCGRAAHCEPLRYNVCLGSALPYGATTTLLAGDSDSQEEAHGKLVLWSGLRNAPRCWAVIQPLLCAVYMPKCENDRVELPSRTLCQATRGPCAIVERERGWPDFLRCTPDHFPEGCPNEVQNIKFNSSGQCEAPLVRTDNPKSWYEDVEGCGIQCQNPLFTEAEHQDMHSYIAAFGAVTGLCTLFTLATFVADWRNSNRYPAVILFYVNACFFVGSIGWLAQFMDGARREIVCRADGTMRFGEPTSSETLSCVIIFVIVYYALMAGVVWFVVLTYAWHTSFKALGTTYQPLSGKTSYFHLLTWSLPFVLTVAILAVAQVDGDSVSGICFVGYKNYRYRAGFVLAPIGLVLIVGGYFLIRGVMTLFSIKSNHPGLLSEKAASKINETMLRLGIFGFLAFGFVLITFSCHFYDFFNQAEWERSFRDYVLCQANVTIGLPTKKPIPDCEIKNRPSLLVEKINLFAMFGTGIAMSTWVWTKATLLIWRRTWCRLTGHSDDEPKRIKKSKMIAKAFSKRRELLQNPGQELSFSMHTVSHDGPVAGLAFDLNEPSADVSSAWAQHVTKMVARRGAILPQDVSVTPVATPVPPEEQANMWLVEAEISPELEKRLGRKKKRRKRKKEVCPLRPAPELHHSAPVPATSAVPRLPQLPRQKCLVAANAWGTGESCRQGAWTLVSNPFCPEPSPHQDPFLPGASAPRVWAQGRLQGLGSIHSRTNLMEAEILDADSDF
Nuclear factor NF-kappa-B complex, sequence (P19838 1-433 limits assumed): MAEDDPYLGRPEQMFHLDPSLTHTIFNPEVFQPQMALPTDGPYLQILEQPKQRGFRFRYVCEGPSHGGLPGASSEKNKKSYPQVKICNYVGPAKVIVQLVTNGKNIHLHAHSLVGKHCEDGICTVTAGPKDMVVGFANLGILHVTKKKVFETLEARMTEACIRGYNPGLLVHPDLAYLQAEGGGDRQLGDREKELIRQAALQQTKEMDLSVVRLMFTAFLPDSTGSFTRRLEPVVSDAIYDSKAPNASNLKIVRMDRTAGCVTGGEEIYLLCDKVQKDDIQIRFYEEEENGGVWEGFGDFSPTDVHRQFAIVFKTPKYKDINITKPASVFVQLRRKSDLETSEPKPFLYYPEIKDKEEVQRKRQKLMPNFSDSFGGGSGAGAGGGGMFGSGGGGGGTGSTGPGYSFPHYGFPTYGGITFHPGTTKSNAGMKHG
Nuclear factor NF-kappa-B complex, sequence (Q00653 1-454 limits assumed): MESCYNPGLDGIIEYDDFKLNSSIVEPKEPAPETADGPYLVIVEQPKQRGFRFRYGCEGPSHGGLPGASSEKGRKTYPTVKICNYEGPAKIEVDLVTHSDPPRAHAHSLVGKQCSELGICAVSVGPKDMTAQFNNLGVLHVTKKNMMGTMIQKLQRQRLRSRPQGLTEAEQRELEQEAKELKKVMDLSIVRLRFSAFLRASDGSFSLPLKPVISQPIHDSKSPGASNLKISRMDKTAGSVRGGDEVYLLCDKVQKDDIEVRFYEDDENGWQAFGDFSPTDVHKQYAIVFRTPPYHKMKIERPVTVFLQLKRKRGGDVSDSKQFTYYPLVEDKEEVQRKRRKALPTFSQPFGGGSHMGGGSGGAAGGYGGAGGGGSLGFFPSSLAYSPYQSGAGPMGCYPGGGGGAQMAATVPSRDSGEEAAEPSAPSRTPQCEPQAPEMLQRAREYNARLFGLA
Nuclear factor NF-kappa-B complex, sequence (Q04206 whole entry): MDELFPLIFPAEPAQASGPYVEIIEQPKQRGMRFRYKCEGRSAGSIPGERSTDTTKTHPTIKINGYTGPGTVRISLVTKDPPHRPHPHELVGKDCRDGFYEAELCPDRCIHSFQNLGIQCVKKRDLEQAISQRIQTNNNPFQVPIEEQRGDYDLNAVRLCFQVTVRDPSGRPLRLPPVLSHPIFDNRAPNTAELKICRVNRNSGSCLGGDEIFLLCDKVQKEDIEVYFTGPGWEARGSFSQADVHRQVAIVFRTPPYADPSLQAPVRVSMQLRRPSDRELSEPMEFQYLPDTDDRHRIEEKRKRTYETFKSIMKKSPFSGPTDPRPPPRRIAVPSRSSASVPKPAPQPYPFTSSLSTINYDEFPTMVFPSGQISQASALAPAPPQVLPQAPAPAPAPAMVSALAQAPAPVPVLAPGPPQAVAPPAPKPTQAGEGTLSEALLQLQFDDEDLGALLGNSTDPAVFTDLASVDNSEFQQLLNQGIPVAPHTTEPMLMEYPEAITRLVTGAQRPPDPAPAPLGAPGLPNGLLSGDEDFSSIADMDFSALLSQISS
Protein smoothened (Homo sapiens, UniProt Q99835), sequence (Q99835 whole entry): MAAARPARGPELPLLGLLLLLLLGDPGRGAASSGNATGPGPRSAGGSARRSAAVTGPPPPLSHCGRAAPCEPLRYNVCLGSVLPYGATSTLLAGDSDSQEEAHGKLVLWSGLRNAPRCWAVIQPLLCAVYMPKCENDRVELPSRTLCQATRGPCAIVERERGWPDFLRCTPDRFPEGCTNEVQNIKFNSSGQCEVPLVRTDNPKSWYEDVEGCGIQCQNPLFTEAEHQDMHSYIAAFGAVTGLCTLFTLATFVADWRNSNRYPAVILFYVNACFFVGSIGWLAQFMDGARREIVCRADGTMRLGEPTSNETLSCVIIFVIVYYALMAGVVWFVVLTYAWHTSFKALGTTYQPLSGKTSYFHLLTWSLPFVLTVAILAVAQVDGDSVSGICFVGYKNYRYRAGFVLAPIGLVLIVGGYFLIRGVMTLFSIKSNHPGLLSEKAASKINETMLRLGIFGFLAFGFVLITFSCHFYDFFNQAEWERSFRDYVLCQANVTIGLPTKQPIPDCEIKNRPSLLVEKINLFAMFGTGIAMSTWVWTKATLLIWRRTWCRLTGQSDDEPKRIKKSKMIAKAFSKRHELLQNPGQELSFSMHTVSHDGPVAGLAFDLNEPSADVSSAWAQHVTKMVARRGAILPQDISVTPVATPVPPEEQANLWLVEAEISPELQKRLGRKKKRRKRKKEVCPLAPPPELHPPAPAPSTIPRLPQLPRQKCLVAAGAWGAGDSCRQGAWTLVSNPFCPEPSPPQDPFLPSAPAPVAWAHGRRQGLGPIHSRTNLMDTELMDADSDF
Beta-2 adrenergic receptor, sequence (P07550 whole entry): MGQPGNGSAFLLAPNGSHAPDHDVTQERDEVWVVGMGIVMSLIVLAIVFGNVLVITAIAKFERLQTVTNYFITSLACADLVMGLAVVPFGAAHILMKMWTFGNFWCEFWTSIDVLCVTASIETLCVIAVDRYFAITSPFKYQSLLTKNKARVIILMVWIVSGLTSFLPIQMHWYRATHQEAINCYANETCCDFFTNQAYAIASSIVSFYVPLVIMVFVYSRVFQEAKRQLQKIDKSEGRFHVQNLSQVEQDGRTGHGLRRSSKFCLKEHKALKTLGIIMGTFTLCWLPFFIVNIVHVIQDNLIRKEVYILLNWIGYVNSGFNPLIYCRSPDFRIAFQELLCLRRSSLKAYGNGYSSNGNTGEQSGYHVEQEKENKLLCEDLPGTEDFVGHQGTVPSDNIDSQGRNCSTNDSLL

SMILES: CC(C)C[C@H](NC(=O)CNC(=O)c1cc(Cl)ccc1Cl)B1OC(=O)C(CC(=O)O)(CC(=O)O)O1 [IXAZOMIB CITRATE]
IC50 [1]: 31 nM
IC50 [2]: 3.5 µM

IC50 [3]: 1.3 nM
IC50 [4]: 2.5 nM
SMILES: Cc1c(C(=O)Nc2ccc(N3C[C@@H](C)O[C@@H](C)C3)nc2)cccc1-c1ccc(OC(F)(F)F)cc1 [SONIDEGIB PHOSPHATE]

EC50 [5]: 2.2 nM
IC50 [6]: 0.5 nM
SMILES: C[C@@H]1C[C@H]2[C@@H]3CCC4=CC(=O)C=C[C@]4(C)[C@@]3(F)[C@@H](O)C[C@]2(C)[C@@]1(O)C(=O)CO [DEXAMETHASONE]

EC50 [7]: 1 nM
SMILES: c1cc(CN2CCCNCCNCCCNCC2)ccc1CN1CCCNCCNCCCNCC1 [PLERIXAFOR]
